Source: patent EP0835125B1, “CD4-DERIVED PEPTIDES THAT INHIBIT IMMUNE RESPONSES” (THOMAS JEFFERSON UNIVERSITY, priority 1995, dated 2004)
Where “and” joins values, the source holds several entries; their conditions need not be identical. Equal values may be shown once. Read-outs that look alike come from different tables or passages of the source. Bridge positions count the residues as written; N and C are the ends. Peptide text beside a SMILES is read from it.

Key:
[1] = molecular target: MHC, class II, gene products on Raji cells (human); experiment: rosette assay, Cr51-labelled Raji cells (MHC class II) on stably T4-pMV7-transfected COS-1 cells (CD4), peptide at 200 uM
[2] = molecular target: MHC, class II, gene products on Raji cells (human); experiment: rosette assay, Raji cells (MHC class II) on CD4-transiently transfected COS-7 cells, peptide at 200 uM, blocks CD4/MHC class II interaction; independent assay 1 of 3
[3] = molecular target: MHC, class II, gene products on Raji cells (human); experiment: rosette assay, Raji cells (MHC class II) on CD4-transiently transfected COS-7 cells, peptide at 200 uM, blocks CD4/MHC class II interaction; independent assay 2 of 3
[4] = molecular target: MHC, class II, gene products on Raji cells (human); experiment: rosette assay, Raji cells (MHC class II) on CD4-transiently transfected COS-7 cells, peptide at 200 uM, blocks CD4/MHC class II interaction; independent assay 3 of 3
[5] = tested on: responder cell alloreactive proliferation (human T cell); conditions: for inhibition (suppressive effect on human T cell activation): 3 h, 100 µM; for activity in human MLR / human T cell proliferation in vitro, in words: in b95 the words describe the cyclic peptide relative to the linear peptides KNSNQI, KNSNQ, NSNQI (linear ones less active)
Description: For this assay, fresh peripheral blood lymphocytes from two different donors are co-cultured; the cells of one donor were irradiated and served as stimulators. Proliferation of these activated T cells was measured by measuring the incorporation of ^3H-thymidine at various timepoints.
For human MLR, 50 ml of whole blood was collected into anti-coagulant (ACD, acid citrate dextrose) containing tubes. In 50 ml conical tubes, 20 ml of blood was layered over 20 ml Ficoll 1077 (Sigma Chemical Co., St. Louis, MO) and centrifuged at 2000 rpm for 35-40 min at 15-20°C. Buffy coats and serum were collected in 3x volume of PBS centrifuged at 1500 rpm for 15 min at 15-20°C. Supernatants were discarded, cells were washed 2x in 50 ml PBS and resuspended in RPMI supplemented with 10% heat-inactivated (56°, 30 min) human serum (cat# H4522, Sigma), 50 IU/ml pen/strep and 2mM (1% of 200 mM stock) L-glutamine (both from BioWhitaker). Lymphocyte yield varied between 5-8x10^7.
In a 96-well flat bottom plate 1 x 10^5 responders were plated with 2 x 10^5 irradiated (3000 rad) simulators/well (added in 100 µl each), and incubated for 6, 7 or 8 days at 37°C, 7% CO2. Peptide analogues were added to quadruplicate wells, at a concentration of 100 µM (5 mg/ml stock) or titrations thereof, immediately after cells were plated. For radiolabelling, the cells were incubated with 1 µCi [^3H]TdR/well (25 µl) (diluted from 1mCi/ml stock, Amersham) for the final 6 hours of incubation. Cells were harvested using a fiberfilter cell harvester (e.g., Harvester 96, Tomtec) and counted in a Beta Counter of Beta plate reader (1205 BS Betaplate Liquid Scintillation Counter, Wallac) with scintillation fluid.

EAE = EAE inhibition in vivo, SJL EAE model, daily severity score on 0-5 scale; set-up: species or system mice; conditions: for effect on EAE in mice, in words: b73: 0.5 mg dose i.v. 12 days after immunization
Description: The C-C' loop peptides were initially tested for efficacy in the SJL EAE model. In untreated animals, a high incidence of disease was observed 15-22 days after two s.c. inoculations of 1 mg of crude murine spinal cord homogenate in complete Freund's adjuvant. The severity of the disease was scored daily using the established 0-5 scale that describes the level of ascending paresis, Korngold, R., et al., 1986, Immunogenetics 24:309-315. The level of the mean EAE severity grade of mice for the untreated control group reached a maximum of 2.0. […] Also shown are the results of groups of mice that received the rD-mPGPtide, a mimic of residues 86-104 of murine homolog of CD4, which was described in Jameson et al. 1994, Nature 368:744-746.

[6] = tested on: interaction of CD4 and MHC, class II; experiment: Rosetting of Raji cells and CD4-transiently transfected COS-7 cells, microscopic count; format: cell-based, human; conditions: 200 µM, three independent assays
Description: The cyclic peptide CNSNQIC (SEQ ID NO:45) at 200 µM was tested to determine if the peptide inhibited the interaction of CD4 and MHC, class II. The test was performed by rosetting Raji cells and CD4-transiently transfected COS-7 cells. See: Moebius, U. et al., 1992, Proc. Natl. Acad. Sci. 89:12008-12; Moebius, U., et al., 1993, Proc. Natl. Acad. Sci. 90:8259-63.
The sequence of human CD4 cDNA is given in Maddon, P.J. et al., 1985, CELL 42:93-104, which sequence is hereby incorporated by reference. […]
For transfection of COS-7 cells, a CD4-expression plasmid T4-pcDNA3, was constructed by subcloning the 3.0 Kb Eco R1 fragment of T4-pMV7 into the EcoRI site of the mammalian expression vector pcDNA3 (INVITROGEN). […] Rosette formation between Raji cells and transfected COS-7 cells was scored microscopically at 100-fold magnification. The number of rosette containing more than five Raji cells was counted in 10 random optical fields in each individual well; 300-400 rosettes per well were counted as the positive control for rosette formation without any inhibition in the absence of any chemicals. The inhibition activity for rosette formation for each chemical was determined by the ratio of the number of rosettes obtained in the presence of this chemical to the number of rosettes in the positive control. […]

[7] = tested on: interaction of CD4 and MHC, class II; experiment: Rosetting of Cr51-labelled Raji cells to stably T4-pMV7-transfected COS-1 cells; format: cell-based, human; conditions: 200 µM
From the text: In a second construct, the T4-pMV7 plasmid, which contains a Tn5 neo selectable marker, was introduced into Cos-1 cells by electroporation. Stably transfected cells were isolated by selection with G-418 and the resultant transformants expressed CD4.
Raji cells were labelled with Cr^51 and rosetted to the stably T4-pMV7-transfected COS-1 cells.

[8] = listed as CNSNQIC (SEQ ID NO:44)

| Compound | percent inhibition of rosetting [1] [%] | percent inhibition of rosettes [2] [%] | percent inhibition of rosettes [3] [%] | percent inhibition of rosettes [4] [%] | inhibition (suppressive effect on human T cell activation) [5] [%] | maximum severity level (mean EAE severity grade) (EAE; 0.5 mg i.v. on day 12, 0-5 scale, untreated control group maximum 2.0) | effect on EAE in mice, in words (EAE) | effect on EAE in mice, in words (EAE; [8]) | inhibition of the rosettes [6] | inhibition of rosetting [7] | activity in human MLR / human T cell proliferation in vitro, in words [5] | activity in human MLR / human T cell proliferation in vitro, in words [5, 8] |
| --- | --- | --- | --- | --- | --- | --- | --- | --- | --- | --- | --- | --- |
| cyclic peptide CNSNQIC (SEQ ID NO:45) | > 75 | 57 | 63 | 51 |  |  |  |  |  |  |  |  |
| CC[C@H](C)[C@H](NC(=O)[C@H](CCC(N)=O)NC(=O)[C@H](CC(N)=O)NC(=O)[C@H](CO)NC(=O)[C@H](CC(N)=O)NC(=O)[C@@H](N)CS)C(=O)N[C@@H](CS)C(=O)O [linear CNSNQIC, CNSNQIC] (H-CNSNQIC-OH) |  |  |  |  | 32.2 |  |  |  |  |  |  |  |
| CC[C@H](C)[C@@H]1NC(=O)[C@H](CCC(N)=O)NC(=O)[C@H](CC(N)=O)NC(=O)[C@H](CO)NC(=O)[C@H](CC(N)=O)NC(=O)[C@@H](N)CSSC[C@@H](C(=O)O)NC1=O [CNSNQIC (SEQ ID NO:45), CNSNQIC] (H-CNSNQIC-OH; disulfide 1-7 (inferred); N-terminus and C-terminus assumed) |  |  |  |  | 54.4 | 1.0 | effective to ameliorate EAE | inhibitor of EAE in mice | 57% and 63% and 51% | greater than 75% | significantly higher activity than the linear peptides | highly potent inhibitor of human T cell proliferation |
